From patent publication US11236055B2 (Venenum Biodesign, LLC, priority 2016, dated 2022)

What was measured:
human TGR5 receptor = molecular target: T1, human TGR5 receptor (Homo sapiens, UniProt Q8TDU6); assay: Human TGR5 cAMP production assay; assay type: cell-based; conditions: human TGR5, luminescent cAMP assay; coded A-D; read-out: Human TGR5 Lum. cAMP Activity (EC50)
T1 construct: host or cells: CHO-K1 (hTGR5-CHO cells)
T1 sequence (Q8TDU6 1-330): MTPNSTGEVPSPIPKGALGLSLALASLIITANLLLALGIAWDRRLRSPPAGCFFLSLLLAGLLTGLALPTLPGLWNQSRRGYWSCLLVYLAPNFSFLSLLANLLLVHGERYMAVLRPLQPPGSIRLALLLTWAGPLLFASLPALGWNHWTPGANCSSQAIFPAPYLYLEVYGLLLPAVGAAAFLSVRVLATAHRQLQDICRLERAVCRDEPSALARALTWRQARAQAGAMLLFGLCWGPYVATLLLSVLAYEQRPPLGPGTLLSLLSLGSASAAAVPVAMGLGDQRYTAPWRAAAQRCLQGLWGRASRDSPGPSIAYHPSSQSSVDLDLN
How it was run: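 CHO-K1 cells stably expressing human TGR5, with IBMX and cAMP antibody, were exposed to half-log serially diluted compound for 1 h at room temperature. cAMP measured by enzyme-fragment complementation luminescence (XS+ kit) after overnight incubation; EC50 values reported.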

mouse TGR5 receptor = molecular target: T2, mouse TGR5 receptor (Mus musculus, UniProt Q80SS6); assay: Mouse TGR5 cAMP production assay (HTRF, Cisbio cAMP HiRange); assay type: cell-based; conditions: HEK293-EBNA cells overexpressing mouse TGR5, HTRF cAMP HiRange; coded A-D
T2 construct: expressed in transfected cells; host or cells: HEK293-EBNA (293 c18, ATCC CRL10852), Hygromycin B selection
T2 sequence (Q80SS6 1-329): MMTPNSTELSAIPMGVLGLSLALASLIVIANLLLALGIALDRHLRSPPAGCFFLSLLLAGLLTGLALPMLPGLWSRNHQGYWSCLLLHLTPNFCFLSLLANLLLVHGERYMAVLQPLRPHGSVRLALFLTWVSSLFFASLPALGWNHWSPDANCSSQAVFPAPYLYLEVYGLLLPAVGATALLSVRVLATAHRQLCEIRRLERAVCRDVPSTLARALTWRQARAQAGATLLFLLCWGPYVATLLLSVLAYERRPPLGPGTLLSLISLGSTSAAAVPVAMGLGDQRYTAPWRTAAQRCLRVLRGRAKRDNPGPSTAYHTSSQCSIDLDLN
How it was run: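 cAMP read by HTRF competition after 1 h room-temperature compound exposure of mouse TGR5-overexpressing HEK293-EBNA cells. Cells were suspended in serum-free DMEM containing 500 μM IBMX; compounds ran as 12-point half-log dilutions in duplicate; EC50 derived.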

For `Cc1cnccc1-c1cccc([C@H](CCCC#N)N(CCCC(=O)OC(C)(C)C)S(=O)(=O)c2cccc(Cl)c2C)c1` [Compound 15AC, (S)-tert-butyl 4-(3-chloro-N-(4-cyano-1-(3-(3-methylpyridin-4-yl)phenyl)butyl)-2-methylphenylsulfonamido) butanoate], the EC50 (human TGR5 receptor) was 100 to 999 nM and the EC50 (mouse TGR5 receptor) was 1000 to 30000 nM.
In the case of `Cc1cnccc1-c1cccc([C@H](CCCC#N)N(CCCC(=O)O)S(=O)(=O)c2cccc(Cl)c2C)c1` [Compound 15AD, (S)-4-(3-chloro-N-(4-cyano-1-(3-(3-methylpyridin-4-yl)phenyl)butyl)-2-methylphenylsulfonamido) butanoic acid], the EC50 (human TGR5 receptor) is reported as 100 to 999 nM and the EC50 (mouse TGR5 receptor) is reported as 100 to 999 nM.
Work on `Cc1cnccc1-c1cccc([C@@H](C)N(CCCC(=O)O)S(=O)(=O)c2cccc(Cl)c2C)c1` [Compound 16AA, (R)-4-(3-chloro-2-methyl-N-(1-(3-(3-methylpyridin-4-yl)-phenyl)ethyl)phenylsulfonamido)butanoic acid] yielded an EC50 (human TGR5 receptor) of 100 to 999 nM and an EC50 (mouse TGR5 receptor) of 1000 to 30000 nM.
`CCc1cnccc1-c1cccc([C@H](C)N(CCCC(=O)O)S(=O)(=O)c2cccc(Cl)c2C)c1` [Compound 16AB, (S)-4-(3-chloro-N-(1-(3-(3-ethylpyridin-4-yl)phenyl)ethyl)-2-methylphenyl-sulfonamido)butanoic acid] gave an EC50 (human TGR5 receptor) of less than 100 nM and an EC50 (mouse TGR5 receptor) of less than 100 nM.
In the case of `Cc1c(Cl)cccc1S(=O)(=O)N(CCCC(=O)O)C(C)(C)c1cccc(-c2ccncc2CO)c1` [Compound 16AC, 4-(3-chloro-N-(2-(3-(3-(hydroxymethyl)pyridin-4-yl)-phenyl)propan-2-yl)-2-methylphenylsulfonamido)butanoic acid], the EC50 (human TGR5 receptor) is reported as less than 100 nM and the EC50 (mouse TGR5 receptor) is reported as 100 to 999 nM.
In the case of `Cc1cnccc1-c1cccc([C@H](C)N(CCCC(=O)O)S(=O)(=O)c2ccccc2C)c1` [Compound 16AD, (S)-4-(2-methyl-N-(1-(3-(3-methylpyridin-4-yl)phenyl)-ethyl)phenylsulfonamido)butanoic acid], the EC50 (human TGR5 receptor) is reported as 100 to 999 nM and the EC50 (mouse TGR5 receptor) is reported as 100 to 999 nM.
For `Cc1cnccc1-c1cccc([C@H](C)N(CCCCC(=O)O)S(=O)(=O)c2cccc(Cl)c2C)c1` [Compound 16AF, (S)-5-(3-chloro-2-methyl-N-(1-(3-(3-methylpyridin-4-yl)phenyl)ethyl)phenylsulfonamido)pentanoic acid], the EC50 (human TGR5 receptor) was less than 100 nM and the EC50 (mouse TGR5 receptor) was 100 to 999 nM.
For `CCc1cnccc1-c1cccc([C@H](C)N(CCCCC(=O)O)S(=O)(=O)c2cccc(Cl)c2C)c1` [Compound 16AG, (S)-5-(3-chloro-N-(1-(3-(3-ethylpyridin-4-yl)phenyl)-ethyl)-2-methylphenyl-sulfonamido)pentanoic acid], the EC50 (human TGR5 receptor) was less than 100 nM and the EC50 (mouse TGR5 receptor) was less than 100 nM.
`Cc1cnsc1-c1cccc([C@H](C)N(CCCC(=O)O)S(=O)(=O)c2cccc(Cl)c2C)c1` [Compound 16AJ, (S)-4-(3-chloro-2-methyl-N-(1-(3-(4-methylisothiazol-5-yl)phenyl)ethyl)phenyl-sulfonamido)butanoic acid] gave an EC50 (human TGR5 receptor) of 1000 to 30000 nM and an EC50 (mouse TGR5 receptor) of 1000 to 30000 nM.
`Cc1cnccc1-c1cccc([C@H](C)N(CCC(=O)O)S(=O)(=O)c2cccc(Cl)c2C)c1` [Compound 16AK, (S)-3-(3-chloro-2-methyl-N-(1-(3-(3-methylpyridin-4-yl)phenyl)ethyl)phenylsulfonamido)propanoic acid] was tested, and the EC50 (human TGR5 receptor) was 1000 to 30000 nM and the EC50 (mouse TGR5 receptor) was 1000 to 30000 nM.
For `Cc1cnccc1-c1cccc(C2(N(CCCC(=O)O)S(=O)(=O)c3cccc(Cl)c3C)COC2)c1` [Compound 16AL, 4-(3-chloro-2-methyl-N-(3-(3-(3-methylpyridin-4-yl)phenyl)-oxetan-3-yl)phenyl-sulfonamido)butanoic acid], the EC50 (human TGR5 receptor) was 100 to 999 nM and the EC50 (mouse TGR5 receptor) was 100 to 999 nM.
`Cc1cnccc1-c1cccc([C@H](C)N(CCOCC(=O)O)S(=O)(=O)c2cccc(Cl)c2C)c1` [Compound 16AM, (S)-2-(2-(3-chloro-2-methyl-N-(1-(3-(3-methylpyridin-4-yl)phenyl)ethyl)phenylsulfonamido)ethoxy)acetic acid] gave an EC50 (human TGR5 receptor) of 100 to 999 nM and an EC50 (mouse TGR5 receptor) of 100 to 999 nM.
`Cc1cnccc1-c1cccc([C@H](C)N(CCCC(=O)O)S(=O)(=O)c2cccc(Cl)c2C)c1` [Compound 16] showed an EC50 (human TGR5 receptor) of 100 to 999 nM and an EC50 (mouse TGR5 receptor) of less than 100 nM.
Compound `Cc1cnccc1-c1cccc([C@H](CC(=O)O)NS(=O)(=O)c2ccccc2C(F)(F)F)c1` [Compound 18, (S)-3-(3-(3-methylpyridin-4-yl)phenyl)-3-(2-(trifluoromethyl)phenylsulfonamido)propanoic acid] has an EC50 (human TGR5 receptor) of 1000 to 30000 nM and an EC50 (mouse TGR5 receptor) of 100 to 999 nM.
With `Cc1cnccc1-c1cccc(C(CCC(=O)O)NS(=O)(=O)c2ccccc2C(F)(F)F)c1` (centres unmarked) [Compound 19, 4-(3-(3-methylpyridin-4-yl)phenyl)-4-(2-(trifluoromethyl)phenylsulfonamido)butanoic acid] the EC50 (human TGR5 receptor) was 1000 to 30000 nM and the EC50 (mouse TGR5 receptor) was 100 to 999 nM.
For `Cc1cnccc1-c1cccc([C@H](CCCC(=O)O)NS(=O)(=O)c2ccccc2C(F)(F)F)c1` [Compound 19AA, (S)-5-(3-(3-methylpyridin-4-yl)phenyl)-5-(2-(trifluoromethyl)phenylsulfonamido) pentanoic acid], the EC50 (human TGR5 receptor) was 100 to 999 nM and the EC50 (mouse TGR5 receptor) was 100 to 999 nM.
For `Cc1cnccc1-c1cccc([C@H](C)N(CCCCC(=O)NC[C@@H](O)[C@H](O)[C@@H](O)[C@@H](O)CO)S(=O)(=O)c2cccc(Cl)c2C)c1` [Compound 20AI, 5-(3-chloro-2-methyl-N-((S)-1-(3-(3-methylpyridin-4-yl)phenyl)ethyl)phenylsulfonamido)-N-((2R,3S,4S,5S)-2,3,4,5,6-pentahydroxyhexyl)pentanamide], the EC50 (human TGR5 receptor) was less than 100 nM and the EC50 (mouse TGR5 receptor) was 100 to 999 nM.
In the case of `Cc1cnccc1-c1cccc([C@H](C)N(CCCC(=O)NCCS(N)(=O)=O)S(=O)(=O)c2cccc(Cl)c2C)c1` [Compound 20AJ, (S)-4-(3-chloro-2-methyl-N-(1-(3-(3-methylpyridin-4-yl)phenyl)ethyl)phenylsulfonamido)-N-(2-sulfamoylethyl)butanamide], the EC50 (human TGR5 receptor) is reported as less than 100 nM and the EC50 (mouse TGR5 receptor) is reported as 100 to 999 nM.
`Cc1cnccc1-c1cccc([C@H](C)N(CCCC(=O)NC[C@@H](O)[C@H](O)[C@@H](O)[C@@H](O)CO)S(=O)(=O)c2cccc(Cl)c2C)c1` [Compound 20AK, 4-(3-chloro-2-methyl-N-((S)-1-(3-(3-methylpyridin-4-yl)phenyl)ethyl)phenylsulfonamido)-N-((2R,3S,4S,5S)-2,3,4,5,6-pentahydroxyhexyl)butanamide] gave an EC50 (human TGR5 receptor) of less than 100 nM and an EC50 (mouse TGR5 receptor) of 100 to 999 nM.
With `Cc1cnccc1-c1cccc([C@H](C)N(CCCC(=O)NCCCS(=O)(=O)O)S(=O)(=O)c2cccc(Cl)c2C)c1` [Compound 20AL, (S)-3-(4-(3-chloro-2-methyl-N-(1-(3-(3-methylpyridin-4-yl)phenyl)ethyl)phenylsulfonamido)butanamido)propane-1-sulfonic acid] the EC50 (human TGR5 receptor) was less than 100 nM and the EC50 (mouse TGR5 receptor) was less than 100 nM.
For `Cc1c(Cl)cccc1S(=O)(=O)N(CCCC(=O)NCCS(=O)(=O)O)C(C)(C)c1cccc(-c2ccncc2CO)c1` [Compound 20AO, 2-(4-(3-chloro-N-(2-(3-(3-(hydroxymethyl)pyridin-4-yl)phenyl)propan-2-yl)-2-methylphenylsulfonamido)butanamido)ethanesulfonic acid], the EC50 (human TGR5 receptor) was less than 100 nM and the EC50 (mouse TGR5 receptor) was 100 to 999 nM.
`Cc1c(Cl)cccc1S(=O)(=O)N(CCCC(=O)NCCS(=O)(=O)O)[C@@H](C)c1cccc(-c2ccncc2CO)c1` [Compound 20AP, (S)-2-(4-(3-chloro-N-(1-(3-(3-(hydroxymethyl)pyridin-4-yl)phenyl)ethyl)-2-methylphenylsulfonamido)butanamido)ethanesulfonic acid] gave an EC50 (human TGR5 receptor) of 100 to 999 nM and an EC50 (mouse TGR5 receptor) of 100 to 999 nM.
With `Cc1cnccc1-c1cccc([C@H](C)N(CCCC(=O)NCCS(=O)(=O)O)S(=O)(=O)c2ccccc2C)c1` [Compound 20AQ, (S)-2-(4-(2-methyl-N-(1-(3-(3-methylpyridin-4-yl)phenyl)ethyl)phenylsulfonamido)butanamido)ethanesulfonic acid] the EC50 (human TGR5 receptor) was less than 100 nM and the EC50 (mouse TGR5 receptor) was 100 to 999 nM.
`Cc1cnccc1-c1cccc([C@H](C)N(CCCCC(=O)NCCOCCN)S(=O)(=O)c2cccc(Cl)c2C)c1` [Compound 20AT, (S)-N-(2-(2-aminoethoxy)ethyl)-5-(3-chloro-2-methyl-N-(1-(3-(3-methylpyridin-4-yl)phenyl)ethyl)phenylsulfonamido)pentanamide] gave an EC50 (human TGR5 receptor) of less than 100 nM and an EC50 (mouse TGR5 receptor) of 100 to 999 nM.
`Cc1cnccc1-c1cccc([C@H](C)N(CCCC(=O)NCCOCCOCCOCCC(=O)O)S(=O)(=O)c2cccc(Cl)c2C)c1` [Compound 20AU, (S)-3-((3-chloro-2-methylphenyl)sulfonyl)-2-(3-(3-methylpyridin-4-yl)phenyl)-7-oxo-11,14,17-trioxa-3,8-diazaicosan-20-oic acid] was tested, and the EC50 (human TGR5 receptor) was less than 100 nM and the EC50 (mouse TGR5 receptor) was 100 to 999 nM.
